According to patent US12358960B2, “Selective targeting of ubiquitin- and ubiquitin-like E1-activating enzymes by structurally-stabilized peptides” (Dana-Farber Cancer Institute, Inc., priority 2019, dated 2025):
Bridge positions count the residues as written; N and C are the ends. Square brackets hold non-standard residues; d marks the D form. Peptide text beside a SMILES is read from it. R8 = C=CCCCCCC[C@@](C)(N)C(=O)O; S5 = C=CCCC[C@](C)(N)C(=O)O; Nle = CCCC[C@H](N)C(=O)O

Key:
[1] = molecular target: T1, native UBA1 (Homo sapiens, UniProt P22314); assay: Streptavidin-biotin pull-down from HeLa cell lysate, western blot for UBA1; type: binding; conditions: biotinylated peptide
T1 construct: endogenous in cells; host or cells: HeLa cell lysate
T1 sequence (P22314 1-1058): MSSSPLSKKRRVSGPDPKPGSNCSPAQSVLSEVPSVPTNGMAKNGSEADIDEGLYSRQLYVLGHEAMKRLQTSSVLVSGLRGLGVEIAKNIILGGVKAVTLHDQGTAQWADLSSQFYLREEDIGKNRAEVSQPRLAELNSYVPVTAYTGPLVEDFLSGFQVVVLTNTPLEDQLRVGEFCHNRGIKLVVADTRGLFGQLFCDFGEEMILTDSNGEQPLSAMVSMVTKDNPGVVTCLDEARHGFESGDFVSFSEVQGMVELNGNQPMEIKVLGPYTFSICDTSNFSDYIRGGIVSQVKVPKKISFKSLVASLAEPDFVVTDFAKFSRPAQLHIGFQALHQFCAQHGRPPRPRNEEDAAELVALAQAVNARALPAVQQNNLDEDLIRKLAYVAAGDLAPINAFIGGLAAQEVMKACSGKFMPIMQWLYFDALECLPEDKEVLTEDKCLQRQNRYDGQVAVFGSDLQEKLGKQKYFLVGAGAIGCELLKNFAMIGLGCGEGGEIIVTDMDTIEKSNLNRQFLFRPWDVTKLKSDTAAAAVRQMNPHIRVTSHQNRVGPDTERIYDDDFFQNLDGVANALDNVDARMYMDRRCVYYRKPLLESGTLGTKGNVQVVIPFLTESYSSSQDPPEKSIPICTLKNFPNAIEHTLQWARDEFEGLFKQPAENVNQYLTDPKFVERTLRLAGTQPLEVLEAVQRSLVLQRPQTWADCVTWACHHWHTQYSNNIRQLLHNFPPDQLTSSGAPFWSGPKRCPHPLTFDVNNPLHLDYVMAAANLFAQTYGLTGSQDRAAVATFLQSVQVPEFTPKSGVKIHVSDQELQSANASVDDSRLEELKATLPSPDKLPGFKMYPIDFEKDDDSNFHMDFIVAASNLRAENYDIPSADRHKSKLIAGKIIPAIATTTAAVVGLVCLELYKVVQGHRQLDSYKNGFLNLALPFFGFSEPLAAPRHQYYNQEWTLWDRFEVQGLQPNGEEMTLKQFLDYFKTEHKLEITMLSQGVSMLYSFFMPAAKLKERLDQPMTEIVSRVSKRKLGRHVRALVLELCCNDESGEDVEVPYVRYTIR
Procedure: Streptavidin-biotin pull-down assays: For recombinant protein pull-downs, 10 pmol recombinant human UBA1 was incubated with 5 nmol C-terminally biotinylated SAH-UBE2A or DMSO vehicle control in a total volume of 1 mL binding buffer (50 mM NaCl, 20 mM HEPES, pH 7.4, 5 mM DTT) for 1.5 hours at 4° C. 30 μL of pre-equilibrated streptavidin agarose beads were then added and incubated for an additional 1.5 hours at 4° C. The beads were pelleted by centrifugation and washed three times with NP-40 buffer (20 mM HEPES, pH 7.4, 50 mM NaCl, 5 mM DTT, 0.5% [v/v] NP-40) before eluting the protein sample from the beads by heating at 70° C. for 10 min in 3×SDS loading buffer. Samples were subjected to electrophoresis and silver staining (Pierce 24612). […] Proteins were separated by SDS-PAGE gel electrophoresis and detected by western blot against UBE1 (Abcam ab34711). […] Conjugation of ubiquitin to E2 by E1 is monitored by conversion of free E2 (17 kDa) to E2˜ubiquitin conjugate (26 kDa). Quantitation of percent inhibition was calculated from densitometry of silver stain images. Error bars represent ±1 SEM calculated from three independent experiments.

[2] = tested on: ubiquitin cascade E1 (UBA1), E2 (UBE2A), E3 (HDM2), substrate p53; assay: In vitro ubiquitin pathway reconstitution assay (p53 ubiquitination); type: biochemical; conditions: peptide 30 μM; for ubiquitination of p53 with E2 pre-activated with Ub: pre-activated E2 instead of uncharged E2 and Ub; for ubiquitination of p53 with E1, E2, E3, Ub and ATP: unactivated E2
Procedure: (§1) In Vitro Ubiquitin Pathway Reconstitution Assay: Reactions containing recombinant His-p53 (0.1 μM), in the presence or absence of peptide (30 μM), UBA1 (0.1 μM), UBE2D (1 μM), HDM2 (1 μM), ubiquitin (1 μM) and ATP (10 mM) (all Boston Biochem K-200B), preactivated Ub-UBEA2 (3 μM) (Boston Biochem E2-802), and USP7 (1 μM) (BostonBiochem E-519), as indicated, were mixed and incubated for 2 h at 37° C. in a final volume of […] followed by denaturation by boiling in SDS-containing loading dye for 10 min at 90° C. Samples were resolved by […] gel electrophoresis and transferred to nitrocellulose membrane. Membranes were blocked with 3% milk for 1 h, incubated overnight in PBS containing 3% BSA and mouse p53 antibody (Boston Biochem K-200B) at a 1:1000 dilution, washed in PBS containing 0.1% Tween-20, and then incubated in PBS containing 3% BSA and anti-mouse secondary antibody (BioRad AAC10P) at a 1:5000 dilution for 1 hour at room temperature. Membranes were again washed in PBS containing 0.1% Tween-20 and imaged using Amersham ECL Prime (GE Life Sciences) on an Amersham Imager 680 (GE Life Sciences).

[3] = molecular target: T2, deubiquitinase enzyme USP7 (Homo sapiens, UniProt Q93009); assay: Deubiquitination of p53 by USP7 in the reconstitution assay; type: biochemical; conditions: peptide 30 μM
T2 construct: purchased BostonBiochem E-519
Procedure: as §1

[4] = molecular target: proteinase K (Parengyodontium album, UniProt P06873); assay: in vitro; conditions: proteinase K (isolated protease) in Tris HCl buffer, pH 7.4
Sequence of proteinase K (P06873 106-384): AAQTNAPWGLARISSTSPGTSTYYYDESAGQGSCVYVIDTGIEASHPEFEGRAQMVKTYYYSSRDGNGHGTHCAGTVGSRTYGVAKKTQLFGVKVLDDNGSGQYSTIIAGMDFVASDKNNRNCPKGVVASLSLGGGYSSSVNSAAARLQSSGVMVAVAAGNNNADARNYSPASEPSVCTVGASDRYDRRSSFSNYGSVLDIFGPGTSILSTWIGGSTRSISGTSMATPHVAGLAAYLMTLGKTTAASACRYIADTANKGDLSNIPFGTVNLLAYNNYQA
Procedure: Peptide Proteolysis Assay: In vitro proteolytic degradation was measured by LC/MS (Agilent 1200) using the following parameters: 20 μl injection, 0.6 mL flow rate, 20-min run time consisting of a gradient of water (0.1% formic acid) to 20%-80% acetonitrile (0.75% formic acid) over 15-min, 4-min wash to revert to starting gradient conditions, and 0.5-min post-time. The MSD set to scan mode with one channel at (M+2H)/2, ±1 mass units, one channel at (M+3H)/3, ±1 mass units, and the other at (M+4H)/4, ±1 mass units. Integration of each MSD signal yielded areas under the curve of >108 counts. Reaction samples were composed of 5 μl peptide in DMSO (1 mM stock) and 195 μl buffer consisting of 50 mM Tris HCl, pH 7.4. Upon injection of the zero time sample, 6 μl of 20 ng/μL proteinase K (New England Biolabs) was added, and the amount of intact peptide quantitated by serial injection over time. A plot of MSD area versus time yielded an exponential decay curve, and half-lives were determined by nonlinear regression analysis using Prism software (GraphPad).

T2 sequence (Q93009 whole entry): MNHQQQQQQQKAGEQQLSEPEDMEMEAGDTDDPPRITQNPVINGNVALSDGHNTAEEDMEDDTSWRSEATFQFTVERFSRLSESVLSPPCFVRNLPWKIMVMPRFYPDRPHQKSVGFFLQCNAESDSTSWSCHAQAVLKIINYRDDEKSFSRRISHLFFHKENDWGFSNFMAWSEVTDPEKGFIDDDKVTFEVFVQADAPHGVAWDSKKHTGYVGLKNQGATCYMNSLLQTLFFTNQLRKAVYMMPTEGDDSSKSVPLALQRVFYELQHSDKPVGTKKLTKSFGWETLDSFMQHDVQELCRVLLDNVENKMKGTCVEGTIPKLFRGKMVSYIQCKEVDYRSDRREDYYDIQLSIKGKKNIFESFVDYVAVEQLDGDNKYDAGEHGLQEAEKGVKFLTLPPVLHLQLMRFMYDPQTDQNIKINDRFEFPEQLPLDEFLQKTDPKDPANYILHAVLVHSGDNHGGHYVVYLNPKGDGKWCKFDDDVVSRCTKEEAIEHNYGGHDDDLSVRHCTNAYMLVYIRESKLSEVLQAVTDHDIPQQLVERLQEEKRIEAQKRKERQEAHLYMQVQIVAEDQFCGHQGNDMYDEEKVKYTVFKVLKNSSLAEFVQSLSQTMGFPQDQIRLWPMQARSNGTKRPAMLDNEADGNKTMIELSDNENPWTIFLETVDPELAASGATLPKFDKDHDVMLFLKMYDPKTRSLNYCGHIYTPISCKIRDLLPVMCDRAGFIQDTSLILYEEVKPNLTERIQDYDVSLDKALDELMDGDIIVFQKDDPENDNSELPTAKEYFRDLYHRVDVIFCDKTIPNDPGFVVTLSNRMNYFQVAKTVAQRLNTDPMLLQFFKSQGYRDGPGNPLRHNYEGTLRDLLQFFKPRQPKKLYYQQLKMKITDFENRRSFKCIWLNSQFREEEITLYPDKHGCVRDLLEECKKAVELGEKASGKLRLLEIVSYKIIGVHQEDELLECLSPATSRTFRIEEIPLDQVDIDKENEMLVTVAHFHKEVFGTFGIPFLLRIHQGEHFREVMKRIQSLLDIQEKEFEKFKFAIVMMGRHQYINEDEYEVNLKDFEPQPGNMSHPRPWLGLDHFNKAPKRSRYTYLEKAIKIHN

## CCCC[C@H](NC(C)=O)C(=O)N[C@@H](CO)C(=O)N[C@H](C(=O)N1CCC[C@H]1C(=O)N[C@]1(C)CCCCCCC=CCCC[C@@](C)(C(=O)N[C@@H](Cc2ccccc2)C(=O)N[C@@H](CCCCN)C(=O)N[C@@H](CCCNC(=N)N)C(=O)N[C@@H](CC(C)C)C(=O)N[C@@H](CCC(N)=O)C(N)=O)NC(=O)[C@H](CCCNC(=N)N)NC(=O)[C@H](CCCC)NC(=O)[C@H](CC(C)C)NC(=O)[C@H](CCCNC(=N)N)NC(=O)[C@H](CCCNC(=N)N)NC(=O)[C@H](CCCNC(=N)N)NC1=O)[C@@H](C)O [SAH-UBE2A-11, BSTPX1RRRLBRX2FKRLQ] (Ac-[Nle]STP[R8]RRRL[Nle]R[S5]FKRLQ-NH2; staple 5-12)
[1]
  direct binding to native UBA1 in HeLa cell lysate: direct binding of SAH-UBE2A to native UBA1
[2]
  ubiquitination of p53 with E2 pre-activated with Ub: no effect on the ubiquitination of p53
  ubiquitination of p53 with E1, E2, E3, Ub and ATP: inhibited the ubiquitination of p53 protein
[2]; listed as SAH-UBE2A
  ubiquitination of p53 with E2 pre-activated with Ub: circumvents the inhibitory activity of SAH-UBE2A
  ubiquitination of p53 with E1, E2, E3, Ub and ATP: inhibits the ubiquitination of p53
[3]
  activity of deubiquitinase USP7 against p53: no effect on the activity of the deubiquitinase enzyme USP7 against p53
[3]; listed as SAH-UBE2A
  activity of deubiquitinase USP7 against p53: regardless of SAH-UBE2A presence
[4]
  half-life at 25 µM: > 6 h
